Experimental data taken from PubChem BioAssay (NCI).
Several values for one entry are separate records, joined by “and”; a condition that tells them apart may be missing. Equal entries are not always repeated.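 Each compound was tested at five concentrations against cells in 96-well plates for 48 hours. GI50 = concentration required for 50% inhibition of growth. TGI denotes the concentration required for complete inhibition of growth.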

How the values were obtained:
Assay in all cases: NCI-60 cell line screen, 48 h
[1] = tested on: TK-10 renal
[2] = tested on: HOP-62 NSCLC
[3] = tested on: MALME-3M melanoma
[4] = tested on: LOX IMVI melanoma
[5] = tested on: SNB-19 CNS
[6] = tested on: RPMI-8226 leukemia
[7] = tested on: PC-3 prostate
[8] = tested on: SR leukemia
[9] = tested on: SF-295 CNS
[10] = tested on: MDA-MB-231 breast

Compound | TGI [1] [µM] | TGI [2] | TGI [3] | TGI [4] | TGI [5] [µM] | TGI [6] [µM] | TGI [7] [µM] | GI50 [2] [µM] | GI50 [3] [µM] | GI50 [8] [µM] | TGI [8] [µM] | GI50 [6] [µM] | TGI [9] [µM] | GI50 [1] [µM] | GI50 [7] [µM] | GI50 [5] [µM] | GI50 [9] [µM] | GI50 [4] [µM] | GI50 [10] [µM] | TGI [10] [µM]
COc1ccc2oc3c(OC)c(OC)c(OC)cc3c(=O)c2c1 | > 100 | > 100 µM | > 100 µM | > 100 µM | > 100 | > 100 | – | – | – | – | – | – | – | – | – | – | – | – | – | –
Cc1cc(-c2c(F)cc3c4nn([C@H]5CC[C@@H](N(C)C)CC5)c(=O)c-4cn(C4CC4)c3c2F)cc(C)n1 | – | 0.0784 µM and 0.455 µM | 0.208 µM and 1.67 µM | 0.571 µM | > 100 | – | > 100 | 0.018 | 0.0318 | 0.002 | 0.0268 | 0.0294 | 0.717 | – | – | – | – | – | – | –
COCCOc1cc(C)cc(/C=C(C)/C=C/C2=C(C)CCCC2(C)C)n1 | > 100 | > 100 µM | > 100 µM | > 100 µM | > 100 | 52.3 | – | – | – | – | > 100 | – | > 100 | – | – | – | – | – | – | –
NC1c2ccccc2Nc2ccccc21 | 29.8 | 26.7 µM | 19 µM | 13.2 µM | 27.7 | 19.6 | – | – | – | – | 7.24 | – | 17 | – | – | – | – | – | – | –
COc1ccc(-c2ccc(/C=N/n3c(COc4ccccc4Cl)nn(CN4CCOCC4)c3=S)o2)c([N+](=O)[O-])c1 | 47.9 | 85.5 µM | 44.3 µM | – | > 100 | 42.1 | 61.4 | 30 | 18 | – | – | 15.2 | > 100 | 14.9 | 20.7 | 36.2 | 38.1 | – | – | –
N#Cc1ccccc1NC(=O)C(=O)C1NC(=S)NC1=O (stereo not given) | > 100 | > 100 µM | > 100 µM | > 100 µM | > 100 | > 100 | – | – | – | – | > 100 | – | > 100 | – | – | – | – | – | – | –
COc1cc(/C=C/c2ccc(O)c(OC)c2)cc(OC)c1 | 68.3 | > 100 µM | > 100 µM | – | > 100 | > 100 | 46.8 | – | – | – | > 100 | – | 54.7 | – | – | – | – | – | – | –
CC1OC(=O)C(O)=C1O (stereo not given) | > 100 | > 100 µM | > 100 µM | > 100 µM | > 100 | > 100 | – | – | – | – | > 100 | – | > 100 | – | – | – | – | – | – | –
CC1=C(C(=O)Nc2ccccc2)C(c2ccccc2Cl)C(C(=O)Nc2ccccc2)=C(C)N1 | > 100 | 38.5 µM | 39.7 µM | 33.6 µM | 92.7 | 46.9 | – | – | – | – | 52.6 | – | 66.9 | – | – | – | – | – | – | –
CC(C)c1cccc(C(C)C)c1N1C(=O)C(=O)C(c2nc3ccccc3o2)C(=O)C1=O | > 100 | > 100 µM | > 100 µM | > 100 µM | > 100 | > 100 | – | – | – | – | – | – | > 100 | – | – | – | – | – | – | –
Cc1ccc2nc(NC(=O)C(=O)C(C#N)c3ccc(Cl)cc3)sc2c1 (stereo not given) | > 50 | > 50 µM | > 50 µM | > 50 µM | > 50 | > 50 | – | – | – | – | – | – | > 50 | – | – | – | – | – | – | –
CCCCCC(O)C(O)CCC[C@H](O)[C@H]1CC[C@H]([C@H]2CC[C@H]([C@H](O)CCCCCCCCCCCCC3=C[C@H](C)OC3=O)O2)O1 (stereo not given in full) | 26.2 | 32 µM | 29.8 µM | 2.93 µM and 14.4 µM | 21.4 | 4.51 | 25.4 | 15.2 | – | – | – | – | – | 6.83 | 9.15 | 4.61 | – | 1.76 | 17.6 | 82.9
CN1Cc2ccccc2/C=C\c2ccccc21 | > 100 | > 100 µM | > 100 µM | > 100 µM | > 100 | 68.7 | > 100 | – | – | – | – | – | > 100 | – | – | – | – | – | – | > 100
CC(=O)N1CCN(CCNC(=O)n2cc(-c3ccncc3)c(-c3cc(O)cc(Cl)c3)n2)CC1 | 50.1 | 32.6 µM | – | 22.7 µM | 78.6 | 23.4 | 57.6 | 16.7 | – | 4.78 | 22.5 | 4.69 | 25.7 | 21.8 | 13.6 | 21.4 | 10.5 | 6.85 | 11.7 | 26.7
C1CCCCc2nc3c(nc2CCC1)c1nc2c(nc1c1nc4c(nc31)CCCCCCCC4)CCCCCCCC2 | > 100 | > 100 µM | > 100 µM | > 100 µM | > 100 | – | – | – | – | – | > 100 | – | > 100 | – | – | – | – | – | – | –
Clc1ccc(-c2c3ccc(=[N+]4CCCCC4)cc-3oc3cc(N4CCCCC4)ccc23)cc1 | 0.345 | 0.202 µM | – | – | 0.313 | – | – | 0.0635 | – | – | – | – | – | 0.129 | – | 0.133 | – | – | – | –
COc1ccc(C2=Nc3ccccc3SC(C)C2)cc1OC (stereo not given) | 79.4 | – | 42.8 µM | 32.9 µM | 40.2 | 38.4 | – | – | – | – | 57.4 | – | 38 | – | – | – | – | – | – | –
CCCOC(=O)c1c(C)n(C)c2scc[n+]12 | > 100 | > 100 µM | > 100 µM | > 100 µM | > 100 | – | > 100 | 44.6 | > 100 | 64 | > 100 | – | > 100 | > 100 | 54.1 | 36.3 | 41.7 | 89.7 | > 100 | > 100
Cc1ccc(N=C[N-]c2ccc(C)cc2)cc1.Cc1ccc(N=C[N-]c2ccc(C)cc2)cc1.O=C([O-])C(F)(F)F.O=C([O-])C(F)(F)F.[OH3+].[OH3+].[Rh+2].[Rh+2] | > 100 | > 100 µM | 56.1 µM | > 100 µM | > 100 | 40.6 | – | > 100 | 28 | – | – | 18.9 | > 100 | 50.2 | – | 58.6 | 86.8 | 31.1 | – | –
Cc1ccc(NC(=O)C(=O)CC(=O)c2c(C)n([O-])c3ccccc3[n+]2=O)cc1C | > 100 | > 100 µM | > 100 µM | > 100 µM | > 100 | > 100 | – | – | – | – | > 100 | – | > 100 | – | – | – | – | – | – | –
CCC(C)CC(C)CC(C)/C=C(\C)C1=C(C)CC(C)(O)O1 (stereo not given) | > 100 | – | – | > 100 µM | – | 90.7 | – | – | – | – | – | – | – | – | – | – | – | – | – | –
COC1=CC(C2c3cc4c(cc3[C@@H](Nc3ccc(F)cc3)C3COC(=O)[C@H]23)OCO4)=CC(=O)C1=O (stereo not given in full) | > 63 | 5.9 µM | 36.6 µM | 35.6 µM | > 66.5 | > 100 | – | – | – | – | > 23.6 | – | 11.8 | – | – | – | – | – | – | –
